These are literature values, as cited in PMC7451048 (Drug metabolism letters, 2019).

SMILES strings stand for the structures.

The target in one data set is P-gp (Homo sapiens, UniProt P08183). To be noted: read-out: Km for P-gp; membrane vesicles isolated from human placenta; ref [61]; cited from earlier work.
The target of a further data set is T1, BCRP (Homo sapiens, UniProt Q9UNQ0).
T1 sequence (Q9UNQ0 1-655): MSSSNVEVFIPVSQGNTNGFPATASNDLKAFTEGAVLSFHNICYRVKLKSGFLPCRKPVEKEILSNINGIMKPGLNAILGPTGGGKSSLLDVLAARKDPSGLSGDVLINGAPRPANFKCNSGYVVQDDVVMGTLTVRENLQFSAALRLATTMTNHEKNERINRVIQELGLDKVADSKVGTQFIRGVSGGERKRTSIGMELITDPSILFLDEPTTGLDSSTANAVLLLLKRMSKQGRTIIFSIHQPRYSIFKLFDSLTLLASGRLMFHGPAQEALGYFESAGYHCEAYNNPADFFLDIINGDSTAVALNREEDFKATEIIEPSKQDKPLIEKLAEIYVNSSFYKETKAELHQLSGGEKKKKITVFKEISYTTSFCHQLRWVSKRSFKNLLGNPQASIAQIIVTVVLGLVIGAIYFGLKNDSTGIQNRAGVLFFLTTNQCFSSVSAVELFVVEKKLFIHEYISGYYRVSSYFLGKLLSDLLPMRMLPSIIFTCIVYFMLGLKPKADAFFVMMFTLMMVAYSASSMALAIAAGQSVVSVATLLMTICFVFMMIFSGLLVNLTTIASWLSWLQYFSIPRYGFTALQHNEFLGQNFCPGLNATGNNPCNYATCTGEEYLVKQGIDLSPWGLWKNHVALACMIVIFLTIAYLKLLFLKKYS
To be noted: read-out: Km for BCRP; membrane vesicles isolated from human placenta; ref [61]; cited from earlier work.

For data set [1] the following is noted: co-administration of clopidogrel and ticlopidine; ref [25]; cited from earlier work.
The test system of data set [2] is OCT/PMAT/MATE transporters. To be noted: read-out: IC50 (OCT/PMAT/MATE inhibitor); reported; ref [44]–[47]; cited from earlier work.

P-gp, sequence (P08183 whole entry): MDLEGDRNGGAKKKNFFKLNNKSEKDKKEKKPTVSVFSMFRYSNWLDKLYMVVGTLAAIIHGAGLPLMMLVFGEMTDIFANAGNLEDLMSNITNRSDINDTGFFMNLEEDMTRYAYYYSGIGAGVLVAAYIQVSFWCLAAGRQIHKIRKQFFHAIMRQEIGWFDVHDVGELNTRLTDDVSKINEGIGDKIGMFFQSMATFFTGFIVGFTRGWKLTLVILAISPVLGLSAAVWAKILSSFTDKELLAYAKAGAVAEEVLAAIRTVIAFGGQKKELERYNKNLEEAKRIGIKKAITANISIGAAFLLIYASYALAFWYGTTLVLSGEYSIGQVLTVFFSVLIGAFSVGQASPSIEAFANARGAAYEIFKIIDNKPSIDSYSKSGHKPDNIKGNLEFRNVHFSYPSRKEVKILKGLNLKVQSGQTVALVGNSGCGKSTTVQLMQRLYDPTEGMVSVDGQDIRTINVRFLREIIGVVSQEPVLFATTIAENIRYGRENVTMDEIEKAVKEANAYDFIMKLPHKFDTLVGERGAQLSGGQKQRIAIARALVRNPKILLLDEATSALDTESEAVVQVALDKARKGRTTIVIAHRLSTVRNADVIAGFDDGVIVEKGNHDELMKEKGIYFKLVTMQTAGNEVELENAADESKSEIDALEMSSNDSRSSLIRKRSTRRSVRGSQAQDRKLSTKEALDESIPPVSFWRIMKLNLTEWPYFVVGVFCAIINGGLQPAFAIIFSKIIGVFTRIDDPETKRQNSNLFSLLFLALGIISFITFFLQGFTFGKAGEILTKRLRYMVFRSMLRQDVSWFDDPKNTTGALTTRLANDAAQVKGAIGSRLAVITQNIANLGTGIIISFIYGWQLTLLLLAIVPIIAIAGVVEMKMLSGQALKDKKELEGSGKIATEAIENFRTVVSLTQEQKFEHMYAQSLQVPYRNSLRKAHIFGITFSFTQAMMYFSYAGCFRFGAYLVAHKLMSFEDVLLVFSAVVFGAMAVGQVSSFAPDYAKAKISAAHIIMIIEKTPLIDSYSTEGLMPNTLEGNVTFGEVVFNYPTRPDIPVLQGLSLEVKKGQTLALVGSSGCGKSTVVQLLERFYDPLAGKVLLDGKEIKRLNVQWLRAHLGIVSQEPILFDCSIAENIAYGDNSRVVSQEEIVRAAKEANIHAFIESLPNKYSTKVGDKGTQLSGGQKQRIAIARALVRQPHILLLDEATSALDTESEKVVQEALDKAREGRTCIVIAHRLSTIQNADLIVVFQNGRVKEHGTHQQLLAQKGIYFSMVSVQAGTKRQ

As for `CC(NC(C)(C)C)C(=O)c1cccc(Cl)c1` (centres unmarked) [BUP, Bupropion], the Km on P-gp was 0.5 µM. Besides, the Km on BCRP is 3 µM. In data set [1], the Difference in half-life entry is listed as “no significant difference” and the “Increase in systemic exposure (AUC)” value was 36–61%.
For the compound `CCN1/C(=C/c2ccc3ccccc3[n+]2CC)C=Cc2ccccc21` [D-22, Decynium-22], the IC50 in data set [2] was 13.8 to 21.9 µM.

As a reminder, the Km is the concentration of substrate that gives half-maximal velocity.
